Structures are written as SMILES. Activity calls are given as the source filed them.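 The calls were made as follows: active = growth-inhibition EC50 no more than tenfold above the top tested dose; inconclusive = flat fit between 30% and 70% inhibition, or unreliable fit; inactive = EC50 more than tenfold above the top tested dose.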 Where only a bound is given, the exact number is not on record here.

The test system of the experiment is E. coli NEB5alpha growth, BacTiter-Glo luminescence, 4 h. The experiment is described as follows: Escherichia coli growth inhibition, dose response, counter-screen for MEX-5/POS-1 RNA-binding inhibitor project, luminescence, NEB5alpha (AID 1959).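 Also: pUC19-transformed ampicillin-resistant cells grown in LB with ampicillin.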
As for `COc1ccc(N2C(=O)NC(=O)/C(=C/c3ccc4c(c3)Cc3ccccc3-4)C2=O)cc1`, the EC50 was > 11 µM (inactive).
As for `Cc1ccc(/C(O)=C/c2nc3ccccc3oc2=O)cc1`, the figure is > 11 µM (inactive); as for `COc1ccc(N2C(=O)/C(=C/c3ccc(C)o3)C(=O)NC2=S)cc1`, > 11 µM (inactive); as for `O=C(O)c1ccc2c(c1)C1C=CCC1C(c1ccncc1)N2` (centres undefined), > 11 µM (inactive).
For the molecule `S=c1[nH]c2ccccc2n2c(=S)[nH]nc12`, the EC50 is > 11 µM (inactive).
As for `Cc1c(CN2CCCCC2)c(O)n(CCCO)c(=O)c1C#N`, the figure is > 11 µM (inactive); as for `Cc1cc(/C=C2\C(=O)NC(=O)N(c3ccc(F)cc3)C2=O)c(C)n1-c1cccc(C(=O)O)c1`, > 11 µM (inactive); as for `CCC(=NCCCN(C)C)c1c(O)n(-c2ccc(OC)cc2)c(=O)[nH]c1=O`, > 11 µM (inactive).
As for `CNC(=O)c1c(NC(=O)c2ccc(S(=O)(=O)N3CCCCC3C)cc2)sc2c1CCN(C)C2` (centres undefined), the figure is > 11 µM (inactive); as for `Cc1ccc(-c2ccccc2)n1-c1ccc(C(=O)O)cc1`, > 11 µM (inactive).
As for `O=C(CSCc1c(Cl)cccc1Cl)NCC1CCCO1` (centres undefined), the figure is > 11 µM (inactive).
Consider `N=c1n(CC(=O)c2ccc([N+](=O)[O-])cc2)c2ccccc2n1Cc1ccc(Cl)cc1`, for which the EC50 was > 11 µM (inactive).
Next, `COC(=O)c1ccc(-n2c(C)cc(C(=O)COC(=O)CC3Sc4ccccc4NC3=O)c2C)cc1` (centres undefined): > 11 µM (inactive).
As for `COc1ccc(C(=O)/C=C/c2ccc(N3CCCCC3)c([N+](=O)[O-])c2)c(OC)c1`, the figure is > 11 µM (inactive).
For `CCCC1Nc2ccc(C(=O)O)cc2C2C=CCC12` (centres undefined), the EC50 was > 11 µM (inactive).
Next, `Cn1c(C(=O)NCCCN2CCOCC2)cc2c(=O)n(C)c3ccccc3c21`: > 11 µM (inactive); `CCCn1nc(C(=O)Nc2ccc3nc(C)sc3c2)c2ccccc2c1=O`: > 11 µM (inactive); `Fc1ccc(NCc2cccnc2)cc1F`: > 11 µM (inactive).
As for `COC(=O)C1=C(C)N(Cc2ccccc2)C(=NCC(C)C)N[C@H]1c1ccccc1`, the figure is > 11 µM (inactive); as for `COc1cc(/C=C2/C(=O)NN(c3cccc(C)c3)C2=O)cc([N+](=O)[O-])c1O`, > 11 µM (inactive); as for `N#CC1=C(N)OC2=C(C(=O)CCC2)C12C(=O)N1CCCc3cccc2c31` (centres undefined), > 11 µM (inactive).
Next, `COc1ccc(OC)c(S(=O)(=O)NC2CCN(Cc3ccccc3)CC2)c1`: > 11 µM (inactive).
Regarding `Cc1ccc2nc3c(cc(C(=O)NCC4CCCO4)c(=N)n3C3CCCC3)c(=O)n2c1` (centres undefined), the EC50 is > 11 µM (inactive).
As for `Cc1c(C(=O)O)cccc1-n1c(C)cc(/C=N/Nc2ccc([N+](=O)[O-])cn2)c1C`, the figure is > 11 µM (inactive).
Regarding `CCOc1cccc(N2C(=O)/C(=C/c3ccco3)C(=O)NC2=S)c1`, the EC50 was > 11 µM (inactive).
In the case of `Cc1cc2c3c(c1)C1(C(=O)N3C(C)(C)CC2C)C(C#N)=C(N)OC2=C1C(=O)CC(C)(C)C2` (centres undefined), the EC50 is > 11 µM (inactive).
Next, `COc1ccc(N/C(=C(/C(Cl)=C(Cl)Cl)[N+](=O)[O-])n2nnc3ccccc32)cc1`: > 11 µM (inactive).
As for `CC(=O)N(C)c1ccc(N=NC2C(=O)N(C(N)=S)N=C2C)cc1` (centres undefined), the figure is > 11 µM (inactive); as for `CC1=C[C@@H]2c3cccc4[nH]cc(c34)C[C@H]2N(C)C1`, > 11 µM (inactive); as for `CCOC(=O)c1cc(CC)sc1/N=C/c1c(O)[nH]c(=S)[nH]c1=O`, > 11 µM (inactive).
As for `COC(=O)c1cc(C(=O)OC)cc(-n2c(C)cc(C(=O)CC#N)c2C)c1`, the figure is > 11 µM (inactive); as for `Cc1ccccc1Nc1nc(Cl)c(C=O)s1`, > 11 µM (inactive); as for `Cc1ccc(NC(=O)CSc2nccc(=O)[nH]2)c(S(=O)(=O)N2CCOCC2)c1`, > 11 µM (inactive).
`COC1(OC)N=C(N)C2(C#N)C(c3ccc4c(c3)OCO4)C12C#N` (centres undefined): the EC50 is > 11 µM (inactive).
As for `CCOc1ccc(S(=O)(=O)Nc2cc(SCC(=O)O)c(O)c3ccccc23)cc1`, the figure is > 11 µM (inactive); as for `N#Cc1cc(NC(=O)c2ccc(F)cc2)c(=O)n2c1[nH]c1ccccc12`, > 11 µM (inactive); as for `C=CCN1C(=O)NC(=O)/C(=C/c2ccc(OC)c(CSc3ccccn3)c2)C1=O`, > 11 µM (inactive).
Regarding `CNCc1ccccc1Sc1ccc(O)c(O)c1`, the EC50 was > 11 µM (inactive).
As for `CC1(C)CC(=O)C2=C(C1)OC(N)=C(C#N)C2c1cccc(OC(=O)c2ccco2)c1` (centres undefined), the figure is > 11 µM (inactive); as for `COc1cc2c(cc1/C=C1/NC(=O)N(c3ccccc3)C1=O)OCO2`, > 11 µM (inactive).
As for `CCN(CC)c1ccc2cc(NC(=O)CCC(=O)O)c(=O)oc2c1`, the figure is > 11 µM (inactive); as for `N#CC1=C(N)OC2=C(C(=O)CC(c3ccccc3)C2)C1c1ccc2c(c1)OCO2` (centres undefined), > 11 µM (inactive); as for `COc1cc2c3nnc(-c4ccccc4)c-3cn(Cc3ccccc3F)c2cc1OC`, > 11 µM (inactive).
As for `Cc1cccc(Oc2nc(-c3ccccn3)nc3ccccc23)c1`, the figure is > 11 µM (inactive); as for `CC1(C)CC(=O)C2=C(C1)OC(N)=C(C#N)[C@@]21C(=O)N(CC(N)=O)c2ccccc21`, > 11 µM (inactive).
With `CCOC(=O)N1CCN(c2nc3ccccc3nc2C(C#N)S(=O)(=O)c2ccc(C)cc2)CC1` (centres undefined), the EC50 is > 11 µM (inactive).
Regarding `NC(CO)C(=O)NNCc1ccc(O)c(O)c1O` (centres undefined), the EC50 is > 11 µM (inactive).
On to `Cc1cc[n+](C2=C([O-])c3ccccc3C(=O)/C2=N\S(=O)(=O)c2cccs2)cc1C`, for which the EC50 was > 11 µM (inactive).
`CCOc1ccc(NC(=O)COc2ccccc2)c([N+](=O)[O-])c1`: the EC50 is > 11 µM (inactive).
Next, `COc1c(O)cccc1[C@H](O)C1CCN(CCc2ccc(F)cc2)CC1`: > 11 µM (inactive).
Next, `CCN(CC)C(=O)CNc1ccc(C(F)(F)F)cc1[N+](=O)[O-]`: > 11 µM (inactive).
As for `Cc1cc(=O)n2[nH]c(N)c(N=Nc3ccccc3)c2n1`, the figure is > 11 µM (inactive).
Take `CCCOc1cccc(C2C(C(=O)c3ccco3)=C(O)C(=O)N2c2nnc(C)s2)c1` (centres undefined): the EC50 is > 11 µM (inactive).
Regarding `Cc1ccc(C(=O)CSc2nc3c([nH]2)c(=O)n(C)c(=O)n3C)cc1`, the EC50 is > 11 µM (inactive).
Next, `O=C(Cc1ccccc1)NNC(=O)c1cnccn1`: > 11 µM (inactive).
Next, `CCN1CCc2c(sc(NC(=O)c3ccc4ccccc4c3)c2C(N)=O)C1`: > 11 µM (inactive); `Cc1c(O)ccc(-c2n[nH]c(C(=O)O)c2-c2nc3ccccc3s2)c1O`: > 11 µM (inactive); `Cc1ccccc1-n1c(O)c(/C=N/NC(=O)c2ccccc2O)c(=O)[nH]c1=S`: > 11 µM (inactive).
As for `O=C(O)c1cc(O)c2c(c1)C(=O)c1cccc(O)c1C2=O`, the figure is > 11 µM (inactive); as for `N#CC1=C(N)OC2=C(C(=O)CCC2)C1c1ccc(OC(=O)N2CCOCC2)cc1` (centres undefined), > 11 µM (inactive).
Take `Cc1nc(S/C(=C/c2ccc(OCc3ccc(C(=O)O)cc3)cc2)C(=O)O)n[nH]1`: the EC50 was > 11 µM (inactive).
As for `Cc1ccc(-c2cc(-c3ccco3)c(C#N)c(=O)[nH]2)cc1`, the figure is > 11 µM (inactive); as for `NC1=NC(=O)/C(=C/c2ccc(-c3ccc(S(N)(=O)=O)cc3)o2)S1`, > 11 µM (inactive).
Next, `CC1(C)CC(=O)C2=C(C1)OC(/N=C/N1CCCC1)=C(C#N)C2c1ccccc1` (centres undefined): > 11 µM (inactive); `O=C(N1CCOCC1)N1CCC(n2nnc3cc(F)ccc32)CC1`: > 11 µM (inactive); `N=c1c(C(=O)NC2CCCCC2)cc2c(=O)n3ccccc3nc2n1Cc1cccnc1`: > 11 µM (inactive).
For `CCC(C)/C=C(C)/C=C/C1=CC2=C(Cl)C(=O)C(C)(OC(C)=O)C(=O)C2=CO1` (centres undefined), the EC50 is > 11 µM (inactive).
Next, `CSc1ccc(C2C(C(=O)c3ccco3)=C(O)C(=O)N2c2nnc(SC)s2)cc1` (centres undefined): > 11 µM (inactive); `CCC(=O)OC1(C)C(=O)C=C2C=C(CCCCNC(=O)OC(C)(C)C)OC=C2C1=O` (centres undefined): > 11 µM (inactive); `O=C1CSC(=S)N1/N=C/c1ccc(O)c(O)c1O`: > 11 µM (inactive).
As for `O=C(/C=C/c1ccc([N+](=O)[O-])o1)NNC(=O)c1ccc(F)cc1`, the figure is 0.232 µM; as for `Nc1ccc2c(c1)-c1ccccc1S(=O)(=O)N2`, > 11 µM (inactive); as for `CCCCN1C(=O)/C(=C2/Sc3ccccc3N2C)S/C1=N\c1ncn[nH]1`, > 11 µM (inactive).
Next, `N#CC(C#N)=Cc1ccc(N2CCOCC2)cc1`: > 11 µM (inactive).
`CCOC(=O)C1CCN(C(=O)CCC(=O)NNc2nc3ccccc3c3nc(C)nn23)CC1`: the EC50 is > 11 µM (inactive).
Next, `Cc1oc(/N=C/c2ccc(O)cc2O)c(C#N)c1C`: > 11 µM (inactive); `Cc1cccc(S(=O)(=O)C(C#N)c2nc3ccccc3nc2N2CCOCC2)c1` (centres undefined): > 11 µM (inactive); `Cc1ccc(N2C(=O)NC(=O)/C(=C\c3cc(C)n(-c4cc(C(=O)O)cc(C(=O)O)c4)c3C)C2=O)cc1`: > 11 µM (inactive).
As for `CCOC1(OCC)N=C(N)C2(C#N)C(c3ccc(NC(C)=O)cc3)C12C#N` (centres undefined), the figure is > 11 µM (inactive); as for `COc1ccc(C(=O)c2sc3nc(C)cc(-c4cccs4)c3c2N)cc1`, > 11 µM (inactive).
As for `COc1ccc2nc3ccccc3nc2c1NC(=O)c1ccc(Cl)cc1Cl`, the figure is > 11 µM (inactive); as for `COc1ccc(OC)c(C2C(C(=O)c3ccco3)=C(O)C(=O)N2CCN2CCOCC2)c1` (centres undefined), > 11 µM (inactive); as for `COc1ccc(NC(=O)Nc2ccc(OCc3ccccc3)cc2)cn1`, > 11 µM (inactive).
With `COC(=O)[C@H](CCSC)NC(=O)NC1CCN(Cc2ccccc2)CC1`, the EC50 is > 11 µM (inactive).

These data come from PubChem BioAssay AID1959 (Broad Institute, 2009).
